In patent US9040570B2, “Compounds for anti-fungal treatment” (priority 2010, dated 2015):
In brackets after ≈: the same amount, converted by molar mass. Entries after “also recorded” stand apart in the source; their conditions may differ.

Assays:
C. neoformans [1] = assay: AK assay with C. neoformans (lysis); type: cell-based
Description: The AK assay was designed to take advantage of the fact that dead yeast cells lose membrane integrity and leak intracellular enzymes and proteins into culture medium. Upon cell lysis, AK is released into the medium and is detected by a coupled enzyme reaction in which AK converts 2 molecules of ADP into ATP. The ATP and luciferin are used by luciferase and a luminescent signal is generated as a reporter of yeast cell lysis (FIG. 1). […] Additionally, traditional growth-based screening cannot differentiate between fungistatic and fungicidal molecules.
In order to determine whether the AK assay was applicable to C. neoformans, a set of molecules containing drugs was tested. […] Agents Chemother.

C. neoformans [2] = settings: cited from earlier work
[3] = other laboratories (Vu and Gelli); cited from earlier work
C. neoformans [4] = settings: reported by Vu and Gelli; cited from earlier work
S. cerevisiae [5] = assay: adenylate kinase (AK) assay with S. cerevisiae (yeast cell lysis); type: cell-based; settings: for AK assay result (fungilytic activity): screen of Prestwick Library
Description: A high throughput assay that detects molecules that cause yeast cell lysis was recently developed as a new method for anti-fungal drug discovery (Krysan and DiDone, J. Biomol. Screen 13:657-64 (2008)). The adenylate kinase (AK) assay has three important features that make it a very useful tool for the identification of fungicidal anti-cryptococcal molecules: it is specific for fungicidal molecules; it is cell-based; and it is carried out with C. neoformans directly.
The AK assay was designed to take advantage of the fact that dead yeast cells lose membrane integrity and leak intracellular enzymes and proteins into culture medium. Upon cell lysis, AK is released into the medium and is detected by a coupled enzyme reaction in which AK converts 2 molecules of ADP into ATP. The ATP and luciferin are used by luciferase and a luminescent signal is generated as a reporter of yeast cell lysis (FIG. 1). The AK assay is specific for molecules that are fungicidal and is more sensitive than traditional growth-based antifungal screening assays. Additionally, traditional growth-based screening cannot differentiate between fungistatic and fungicidal molecules.
As part of the validation studies, a library of 1200 previously marketed drugs (Prestwick Library) was screened using the AK assay with S. cerevisiae (Krysan and DiDone, J. Biomol. Screen 13:657-64 (2008)). The library contained 15 clinically used antifungal drugs, of which 9 scored positive as fungilytic. […] In addition to molecules with known antifungal activity, fungilytic activity was identified in 10 drugs for which no antifungal activity had been reported previously (FIG. 3B). Subsequently, the antifungal activity of two drugs, astemizole and suloctidil was confirmed by other laboratories (Vu and Gelli, Med. Mycol. 1-9 (2009)). Thus, the AK assay is a sensitive reporter of antifungal activity in the HTS setting.

S. cerevisiae cells = assay: growth assay / MIC with S. cerevisiae cells; type: cell-based; settings: Saccharomyces cerevisiae; this strain of S. cerevisiae cells; read-out: minimum inhibitory concentration (MIC)
C. albicans [6] = assay: follow-up lysis assay with C. albicans; type: cell-based
pathogenic yeast = assay: in vitro susceptibility testing of a range of pathogenic yeast, CLSI standardized methods; type: cell-based
C. neoformans [7] = assay: MIC against C. neoformans; type: cell-based; settings: for MIC: Cryptococcus neoformans
Description: (§1) To complete the characterization of the antifungal activity of triphenylethylene-based estrogen receptor antagonists, toremifene was also evaluated. […] The interaction of toremifene with FLC was also evaluated using checkerboard methods.

C. albicans [8] = assay: MIC against C. albicans; type: cell-based; settings: Candida albicans
Description: as §1

C. albicans [9] = assay: mouse model of disseminated candidiasis, kidney fungal burden; type: in vivo; settings: mice, 7 day pre-treatment at 200 mg/kg, C. albicans tail vein injection, 48 hour kidney burden
Description: FIGS. 5A and 5B show in vitro and in vivo antifungal activity of TAM/CLM.
Mice were treated with either sham or tamoxifen for seven days prior to challenge with C. albicans by tail vein injection. […] The mice were treated for an additional two days, sacrificed, and kidney fungal burdens determined. Kidney fungal burden is a well-characterized quantitative endpoint that correlates with efficacy. […] These studies further support the potential utility of this class of molecules as antifungal agents.

S. cerevisiae [10] = assay: chemical genetic analysis: growth of S. cerevisiae PKC1/CMD1 strains on tamoxifen plates; type: cell-based
Description: Previously, the molecular target of tamoxifen and related compounds in yeast was unknown. […] Both of these proteins are essential in yeast.

calmodulin with Myo2p = tested on: T1, calmodulin with Myo2p; assay: pull down of Myo2-GFP by sepharose bead immobilized calmodulin from yeast cell lysates; type: binding; settings: in vitro, crude yeast cell lysates
T1 construct: host or cells: Myo2-GFP came from crude lysates of yeast cells expressing it

Myo2-GFP = Myo2-GFP localization to bud neck/septum during mitosis; type: cell-based, yeast
C. neoformans [11] = assay: non-antibody mediated phagocytosis of C. neoformans by J774 cells; type: cell-based, murine; settings: absence of opsonization; subinhibitory toremifene 4 μg/ml overnight
Description: C. neoformans JEC21 cells were treated overnight with DMSO or subinhibitory toremifene (4 μg/ml), washed, and exposed to J774 macrophage cells for 2 hours without antibody.

CCCCc1oc2ccccc2c1C(=O)c1cc(I)c(OCCN(CC)CC)c(I)c1 [amiodarone]
AK release / lysis (C. neoformans [1]): AK release was detected

C[C@@H]1[C@H](O)[C@@H](C)/C=C/C=C/C=C/C=C/C=C/C=C/C=C/[C@H](O[C@@H]2O[C@H](C)[C@@H](O)[C@H](N)[C@@H]2O)C[C@@H]2O[C@](O)(C[C@@H](O)C[C@@H](O)[C@H](O)CC[C@@H](O)C[C@@H](O)CC(=O)O[C@H]1C)C[C@H](O)[C@H]2C(=O)O [amphotericin B]
efficiency by which macrophages phagocytose C. neoformans (C. neoformans [2]; background statement): increase

COc1ccc(CCN2CCC(Nc3nc4ccccc4n3Cc3ccc(F)cc3)CC2)cc1 [astemizole]
AK release / lysis (C. neoformans [1]): caused lysis | antifungal activity [3]: confirmed | fungicidal activity toward C. neoformans (C. neoformans [4]): fungicidal | interaction with FLC (C. neoformans [4]): synergistic

CC[C@H](C)C[C@H](C)CCCCCCCCC(=O)N[C@H]1C[C@@H](O)[C@@H](NCCN)NC(=O)[C@@H]2[C@@H](O)CCN2C(=O)[C@H]([C@H](O)CCN)NC(=O)[C@H]([C@H](O)[C@@H](O)c2ccc(O)cc2)NC(=O)[C@@H]2C[C@@H](O)CN2C(=O)[C@H]([C@@H](C)O)NC1=O [caspofungin]
concentration inducing AK release relative to concentration causing detectable change in growth rate (S. cerevisiae [5]; fold below): ~10 fold | MIC (S. cerevisiae cells): 0.062 µg/mL (≈ 0.0567 µM) | AK release / lysis (C. neoformans [1]): not

CCN(CC)CCOc1ccc(C(=C(Cl)c2ccccc2)c2ccccc2)cc1 [clomiphene]
AK assay result (fungilytic activity) (S. cerevisiae [5]): highly fungilytic | AK release / lysis (C. neoformans [1]): cause lysis | lysis (C. albicans [6]): cause lysis | activity relative to tamoxifen (pathogenic yeast): consistently less active | MIC (C. neoformans [7]): 64 µg/mL

OC(Cn1cncn1)(Cn1cncn1)c1ccc(F)cc1F [fluconazole]
AK assay result (fungilytic activity) (S. cerevisiae [5]): negative; also recorded: not positive | MIC (C. neoformans [7]): 4 µg/mL | increase of phagocytosis (C. neoformans [2]; Nosanchuk et al.): 2 fold

COC1=CC(=O)C[C@@H](C)[C@]12Oc1c(Cl)c(OC)cc(OC)c1C2=O [griseofulvin]
AK assay result (fungilytic activity) (S. cerevisiae [5]): negative; also recorded: not positive

CCCCCCCCNC(C)C(O)c1ccc(SC(C)C)cc1 (centres unmarked) [suloctidil]
antifungal activity [3]: confirmed

CC/C(=C(\c1ccccc1)c1ccc(OCCN(C)C)cc1)c1ccccc1 [tamoxifen]
AK assay result (fungilytic activity) (S. cerevisiae [5]): highly fungilytic | lysis (C. albicans [6]): cause lysis | MIC (C. albicans [8]): 32 µg/mL | MIC (C. neoformans [7]): 64 µg/mL | lowering of kidney fungal burden (C. albicans [9]): 1.5 log10 | sensitivity of strains with hypofunctional alleles of CMD1 (S. cerevisiae [10]; S. cerevisiae cmd1 mutants): hypersensitive | effect of CMD1 overexpression on growth on tamoxifen plates (S. cerevisiae [10]; wild type S. cerevisiae overexpressing CMD1): suppressed toxicity | effect of PKC1 overexpression on growth on tamoxifen plates (S. cerevisiae [10]; wild type S. cerevisiae overexpressing PKC1): exacerbated its effects | ability of immobilized calmodulin to pull down Myo2-GFP (calmodulin with Myo2p): interferes | Myo2-GFP localizing to the bud neck/septum region (Myo2-GFP): prevented

CN(C)CCOc1ccc(/C(=C(/CCCl)c2ccccc2)c2ccccc2)cc1 [toremifene]
increase in AK release (C. neoformans [1]; at 4 μg/mL): 12 fold | MIC (C. albicans [8]): 32 µg/mL | MIC lower than either tamoxifen or clomiphene (C. neoformans [7]): 16 fold | increase of MIC at 30° C. relative to 37° C. (C. neoformans [7]): 2 fold | MIC (C. neoformans [7]): 4 µg/mL | increase of phagocytosis of C. neoformans by J774 cells (C. neoformans [11]): 2 fold
